In BigSolDB 2.1:

Question: For `CC(C)(C)OC(=O)N[C@@H](CC(N)=O)C(=O)O`, which solubility (mole fraction) (in 2-butanone, 283.15 K) is on record?
Answer: 0.000534

Question: And the solubility (mole fraction) (in 2-butanone, 288.15 K)?
Answer: 0.000543

Question: And the solubility (mole fraction) (in 2-butanone, 293.15 K)?
Answer: 0.000641

Question: What about the solubility (mole fraction) (in 2-butanone, 298.15 K) of the same compound?
Answer: 0.000673

Question: And the solubility (mole fraction) (in 2-butanone, 303.15 K)?
Answer: 0.000804

Question: And the solubility (mole fraction) (in 2-butanone, 308.15 K)?
Answer: 0.000879

Question: And the solubility (mole fraction) (in 2-butanone, 313.15 K)?
Answer: 0.00109

Question: What about the solubility (mole fraction) (in 2-butanone, 318.15 K) of the same compound?
Answer: 0.00131

Question: And the solubility (mole fraction) (in 2-butanone, 323.15 K)?
Answer: 0.00171

Question: What about the solubility (mole fraction) (in acetone, 283.15 K) of the same compound?
Answer: 0.000897

Question: And the solubility (mole fraction) (in acetone, 288.15 K)?
Answer: 0.000927

Question: And the solubility (mole fraction) (in acetone, 293.15 K)?
Answer: 0.0012

Question: What about the solubility (mole fraction) (in acetone, 298.15 K) of the same compound?
Answer: 0.00139

Question: And the solubility (mole fraction) (in acetone, 303.15 K)?
Answer: 0.00166

Question: And the solubility (mole fraction) (in acetone, 308.15 K)?
Answer: 0.00201

Question: And the solubility (mole fraction) (in acetone, 313.15 K)?
Answer: 0.00222

Question: And the solubility (mole fraction) (in acetone, 318.15 K)?
Answer: 0.00253

Question: What about the solubility (mole fraction) (in acetone, 323.15 K) of the same compound?
Answer: 0.00308

Question: And the solubility (mole fraction) (in acetonitrile, 283.15 K)?
Answer: 0.000136

Question: What about the solubility (mole fraction) (in acetonitrile, 288.15 K) of the same compound?
Answer: 0.000177

Question: What about the solubility (mole fraction) (in acetonitrile, 293.15 K) of the same compound?
Answer: 0.000195

Question: What about the solubility (mole fraction) (in acetonitrile, 298.15 K) of the same compound?
Answer: 0.000257

Question: And the solubility (mole fraction) (in acetonitrile, 303.15 K)?
Answer: 0.000313

Question: And the solubility (mole fraction) (in acetonitrile, 308.15 K)?
Answer: 0.000398

Question: What about the solubility (mole fraction) (in acetonitrile, 313.15 K) of the same compound?
Answer: 0.000499

Question: And the solubility (mole fraction) (in acetonitrile, 318.15 K)?
Answer: 0.000665

Question: And the solubility (mole fraction) (in acetonitrile, 323.15 K)?
Answer: 0.000856

Question: And the solubility (mole fraction) (in ethanol, 283.15 K)?
Answer: 0.00213

Question: What about the solubility (mole fraction) (in ethanol, 288.15 K) of the same compound?
Answer: 0.00253

Question: What about the solubility (mole fraction) (in ethanol, 293.15 K) of the same compound?
Answer: 0.0031

Question: And the solubility (mole fraction) (in ethanol, 298.15 K)?
Answer: 0.00375

Question: And the solubility (mole fraction) (in ethanol, 303.15 K)?
Answer: 0.00454

Question: And the solubility (mole fraction) (in ethanol, 308.15 K)?
Answer: 0.00533

Question: What about the solubility (mole fraction) (in ethanol, 313.15 K) of the same compound?
Answer: 0.00632

Question: And the solubility (mole fraction) (in ethanol, 318.15 K)?
Answer: 0.00776

Question: What about the solubility (mole fraction) (in ethanol, 323.15 K) of the same compound?
Answer: 0.0091

Question: And the solubility (mole fraction) (in isobutanol, 283.15 K)?
Answer: 0.000686

Question: What about the solubility (mole fraction) (in isobutanol, 288.15 K) of the same compound?
Answer: 0.000865

Question: What about the solubility (mole fraction) (in isobutanol, 293.15 K) of the same compound?
Answer: 0.000918

Question: And the solubility (mole fraction) (in isobutanol, 298.15 K)?
Answer: 0.00106

Question: And the solubility (mole fraction) (in isobutanol, 303.15 K)?
Answer: 0.0014

Question: What about the solubility (mole fraction) (in isobutanol, 308.15 K) of the same compound?
Answer: 0.0018

Question: And the solubility (mole fraction) (in isobutanol, 313.15 K)?
Answer: 0.00236

Question: And the solubility (mole fraction) (in isobutanol, 318.15 K)?
Answer: 0.00324

Question: And the solubility (mole fraction) (in isobutanol, 323.15 K)?
Answer: 0.00421

Question: And the solubility (mole fraction) (in isopropanol, 283.15 K)?
Answer: 0.00136

Question: What about the solubility (mole fraction) (in isopropanol, 288.15 K) of the same compound?
Answer: 0.00169

Question: And the solubility (mole fraction) (in isopropanol, 293.15 K)?
Answer: 0.00204

Question: And the solubility (mole fraction) (in isopropanol, 298.15 K)?
Answer: 0.00252

Question: And the solubility (mole fraction) (in isopropanol, 303.15 K)?
Answer: 0.00317

Question: What about the solubility (mole fraction) (in isopropanol, 308.15 K) of the same compound?
Answer: 0.00372

Question: What about the solubility (mole fraction) (in isopropanol, 313.15 K) of the same compound?
Answer: 0.00433

Question: What about the solubility (mole fraction) (in isopropanol, 318.15 K) of the same compound?
Answer: 0.00528

Question: And the solubility (mole fraction) (in isopropanol, 323.15 K)?
Answer: 0.00658

Question: And the solubility (mole fraction) (in methanol, 283.15 K)?
Answer: 0.00641

Question: And the solubility (mole fraction) (in methanol, 288.15 K)?
Answer: 0.0073

Question: And the solubility (mole fraction) (in methanol, 293.15 K)?
Answer: 0.00842

Question: And the solubility (mole fraction) (in methanol, 298.15 K)?
Answer: 0.00982

Question: What about the solubility (mole fraction) (in methanol, 303.15 K) of the same compound?
Answer: 0.0111

Question: And the solubility (mole fraction) (in methanol, 308.15 K)?
Answer: 0.013

Question: What about the solubility (mole fraction) (in methanol, 313.15 K) of the same compound?
Answer: 0.0153

Question: And the solubility (mole fraction) (in methanol, 318.15 K)?
Answer: 0.0172

Question: What about the solubility (mole fraction) (in methanol, 323.15 K) of the same compound?
Answer: 0.022

Question: And the solubility (mole fraction) (in n-butanol, 283.15 K)?
Answer: 0.000791

Question: What about the solubility (mole fraction) (in n-butanol, 288.15 K) of the same compound?
Answer: 0.000839

Question: What about the solubility (mole fraction) (in n-butanol, 293.15 K) of the same compound?
Answer: 0.00113

Question: What about the solubility (mole fraction) (in n-butanol, 298.15 K) of the same compound?
Answer: 0.00131

Question: And the solubility (mole fraction) (in n-butanol, 303.15 K)?
Answer: 0.00172

Question: What about the solubility (mole fraction) (in n-butanol, 308.15 K) of the same compound?
Answer: 0.00189

Question: What about the solubility (mole fraction) (in n-butanol, 313.15 K) of the same compound?
Answer: 0.00241

Question: And the solubility (mole fraction) (in n-butanol, 318.15 K)?
Answer: 0.003

Question: What about the solubility (mole fraction) (in n-butanol, 323.15 K) of the same compound?
Answer: 0.00377

Question: And the solubility (mole fraction) (in n-pentanol, 283.15 K)?
Answer: 0.000561

Question: What about the solubility (mole fraction) (in n-pentanol, 288.15 K) of the same compound?
Answer: 0.000787

Question: What about the solubility (mole fraction) (in n-pentanol, 293.15 K) of the same compound?
Answer: 0.00102

Question: And the solubility (mole fraction) (in n-pentanol, 298.15 K)?
Answer: 0.00154

Question: And the solubility (mole fraction) (in n-pentanol, 303.15 K)?
Answer: 0.00178

Question: What about the solubility (mole fraction) (in n-pentanol, 308.15 K) of the same compound?
Answer: 0.00227

Question: What about the solubility (mole fraction) (in n-pentanol, 313.15 K) of the same compound?
Answer: 0.00266

Question: What about the solubility (mole fraction) (in n-pentanol, 318.15 K) of the same compound?
Answer: 0.00302

Question: What about the solubility (mole fraction) (in n-pentanol, 323.15 K) of the same compound?
Answer: 0.00364

Question: What about the solubility (mole fraction) (in n-propanol, 283.15 K) of the same compound?
Answer: 0.00105

Question: What about the solubility (mole fraction) (in n-propanol, 288.15 K) of the same compound?
Answer: 0.00145

Question: What about the solubility (mole fraction) (in n-propanol, 293.15 K) of the same compound?
Answer: 0.00176

Question: What about the solubility (mole fraction) (in n-propanol, 298.15 K) of the same compound?
Answer: 0.00195

Question: And the solubility (mole fraction) (in n-propanol, 303.15 K)?
Answer: 0.0026

Question: And the solubility (mole fraction) (in n-propanol, 308.15 K)?
Answer: 0.00323

Question: What about the solubility (mole fraction) (in n-propanol, 313.15 K) of the same compound?
Answer: 0.00386

Question: And the solubility (mole fraction) (in n-propanol, 318.15 K)?
Answer: 0.00498

Question: And the solubility (mole fraction) (in n-propanol, 323.15 K)?
Answer: 0.00612

Question: What about the solubility (mole fraction) (in sec-butanol, 283.15 K) of the same compound?
Answer: 0.00103

Question: And the solubility (mole fraction) (in sec-butanol, 288.15 K)?
Answer: 0.00143

Question: And the solubility (mole fraction) (in sec-butanol, 293.15 K)?
Answer: 0.0017

Question: And the solubility (mole fraction) (in sec-butanol, 298.15 K)?
Answer: 0.00227

Question: And the solubility (mole fraction) (in sec-butanol, 303.15 K)?
Answer: 0.00245

Question: What about the solubility (mole fraction) (in sec-butanol, 308.15 K) of the same compound?
Answer: 0.00299

Question: And the solubility (mole fraction) (in sec-butanol, 313.15 K)?
Answer: 0.00406

Question: What about the solubility (mole fraction) (in sec-butanol, 318.15 K) of the same compound?
Answer: 0.00505

Question: What about the solubility (mole fraction) (in sec-butanol, 323.15 K) of the same compound?
Answer: 0.00619

Question: What about the solubility (mole fraction) (in water, 283.15 K) of the same compound?
Answer: 0.000247

Question: And the solubility (mole fraction) (in water, 288.15 K)?
Answer: 0.000288

Question: What about the solubility (mole fraction) (in water, 293.15 K) of the same compound?
Answer: 0.000359

Question: What about the solubility (mole fraction) (in water, 298.15 K) of the same compound?
Answer: 0.000452

Question: What about the solubility (mole fraction) (in water, 303.15 K) of the same compound?
Answer: 0.000492

Question: And the solubility (mole fraction) (in water, 308.15 K)?
Answer: 0.000617

Question: What about the solubility (mole fraction) (in water, 313.15 K) of the same compound?
Answer: 0.00076

Question: And the solubility (mole fraction) (in water, 318.15 K)?
Answer: 0.000834

Question: What about the solubility (mole fraction) (in water, 323.15 K) of the same compound?
Answer: 0.00107
